The text below walks through data of patent US10144732B2 (BIOGEN MA INC., priority 2014, dated 2018).

Counter-ions that a name gives are not always drawn. Bounds are passed on as bounds.

A word on the IC50: it is the concentration that inhibits the measured activity by half.

In one experiment the target is T1, Human ATX protein (Homo sapiens, UniProt Q13822).
T1 construct: made in house
As to the kind of experiment: ATX biochemical assay (FRET, FS-3 substrate). Particulars: FRET assay, FS-3 2 μM, ATX 1.0 μg/mL, 30 minutes preincubation, 2 hours reaction at room temperature; read-out: IC50. The method in brief:
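FRET read-out: cleavage of FS-3 (2 μM final) unquenches fluorescein, measured at 485/538 nm after 2 h at room temperature. Before substrate addition, in-house-expressed human autotaxin (1.0 μg/mL) sat with compound for 30 min in pH 7.4 Tris/NaCl/KCl/CaCl2/MgCl2 buffer containing fatty acid free-BSA at 1 mg/mL.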
As to `O=C(O)C1CCCN(CC(=O)N2CCc3c(C(F)(F)F)nn(Cc4ccc(F)cc4)c3C2)C1` (stereo not shown) [Example 13-7, 1-(2-(1-(4-Fluorobenzyl)-3-(trifluoromethyl)-4,5-dihydro-1H-pyrazolo[3,4-c]pyridin-6(7H)-yl)-2-oxoethyl)piperidine-3-carboxylic acid], the IC50 was ≤ 100 nM. `CC(C(=O)N1CCc2c(C(F)(F)F)nn(Cc3ccc(Cl)cc3F)c2C1)N1CCC(C(=O)O)CC1` (stereo not shown) [Example 13-8, 1-(1-(1-(4-Chloro-2-fluorobenzyl)-3-(trifluoromethyl)-4,5-dihydro-1H-pyrazolo[3,4-c]pyridin-6(7H)-yl)-1-oxopropan-2-yl)piperidine-4-carboxylic acid]: the IC50 is ≤ 100 nM. For `O=C(O)C1CC2CN(CC(=O)N3CCc4c(C(F)(F)F)nn(Cc5ccc(Cl)cc5F)c4C3)CC2C1` (stereo not shown) [Example 13-9, 2-(2-(1-(4-Chloro-2-fluorobenzyl)-3-(trifluoromethyl)-4,5-dihydro-1H-pyrazolo[3,4-c]pyridin-6(7H)-yl)-2-oxoethyl)octahydrocyclopenta[c]pyrrole-5-carboxylic acid TFA salt], the IC50 was ≤ 100 nM. On the same count and under the same terms, for `O=C(O)C1CC2CN(CC(=O)N3CCc4c(C(F)(F)F)nn(Cc5ccc(F)cc5)c4C3)CC2C1` (stereo not shown) [Example 13-10, 2-(2-(1-(4-Fluorobenzyl)-3-(trifluoromethyl)-4,5-dihydro-1H-pyrazolo[3,4-c]pyridin-6(7H)-yl)-2-oxoethyl)octahydrocyclopenta[c]pyrrole-5-carboxylic acid TFA salt] the value was ≤ 100 nM.

`CC1(C)C(NCC(=O)N2CCc3c(C(F)(F)F)nn(Cc4ccc(Cl)cc4F)c3C2)CC1C(=O)O` (stereo not shown) [Example 13-11, 3-((2-(1-(4-Chloro-2-fluorobenzyl)-3-(trifluoromethyl)-4,5-dihydro-1H-pyrazolo[3,4-c]pyridin-6(7H)-yl)-2-oxoethyl)amino)-2,2-dimethylcyclobutanecarboxylic acid TFA salt]: the half-maximal inhibitory concentration (IC50) was ≤ 100 nM. The same measure, in the same setting: as for `O=C(O)C1CCN(CC(=O)N2CCc3c(C(F)(F)F)nn(Cc4ccc(F)cc4)c3C2)C1` (stereo not shown) [Example 13-12, 1-(2-(1-(4-Fluorobenzyl)-3-(trifluoromethyl)-4,5-dihydro-1H-pyrazolo[3,4-c]pyridin-6(7H)-yl)-2-oxoethyl)pyrrolidine-3-carboxylic acid], the figure is ≤ 100 nM; as for `O=C(O)CC1CCN(CC(=O)N2CCc3c(C(F)(F)F)nn(Cc4ccc(Cl)cc4F)c3C2)CC1` [Example 13-13, 2-(1-(2-(1-(4-Chloro-2-fluorobenzyl)-3-(trifluoromethyl)-4,5-dihydro-1H-pyrazolo[3,4-c]pyridin-6(7H)-yl)-2-oxoethyl)piperidin-4-yl)acetic acid TFA salt], ≤ 100 nM; as for `CC1(C)C(NCC(=O)N2CCc3c(C(F)(F)F)nn(Cc4ccc(F)cc4)c3C2)CC1C(=O)O` (stereo not shown) [Example 13-14, 3-((2-(1-(4-Fluorobenzyl)-3-(trifluoromethyl)-4,5-dihydro-1H-pyrazolo[3,4-c]pyridin-6(7H)-yl)-2-oxoethyl)amino)-2,2-dimethylcyclobutanecarboxylic acid TFA salt], ≤ 100 nM.

Regarding `O=C(O)CC1CCN(CC(=O)N2CCc3c(C(F)(F)F)nn(Cc4ccc(F)cc4)c3C2)CC1` [Example 13-15, 2-(1-(2-(1-(4-Fluorobenzyl)-3-(trifluoromethyl)-4,5-dihydro-1H-pyrazolo[3,4-c]pyridin-6(7H)-yl)-2-oxoethyl)piperidin-4-yl)acetic acid TFA salt], the IC50 is ≤ 100 nM.

For `O=C(O)CCNCC(=O)N1CCc2c(C(F)(F)F)nn(Cc3ccc(F)cc3)c2C1` [Example 13-16, 3-(2-(1-(4-Fluorobenzyl)-3-(trifluoromethyl)-4,5-dihydro-1H-pyrazolo[3,4-c]pyridin-6(7H)-yl)-2-oxoethylamino)propanoic acid TFA salt], the IC50 is ≤ 100 nM.

As for `O=C(O)C1CN(CC(=O)N2CCc3c(C(F)(F)F)nn(Cc4ccc(Cl)cc4F)c3C2)C1` [Example 13-17, 1-(2-(1-(4-Chloro-2-fluorobenzyl)-3-(trifluoromethyl)-4,5-dihydro-1H-pyrazolo[3,4-c]pyridin-6(7H)-yl)-2-oxoethyl)azetidine-3-carboxylic acid TFA salt], the IC50 is ≤ 100 nM. With `O=C(O)C1CN(CC(=O)N2CCc3c(C(F)(F)F)nn(Cc4ccc(F)cc4)c3C2)C1` [Example 13-18, 1-(2-(1-(4-Fluorobenzyl)-3-(trifluoromethyl)-4,5-dihydro-1H-pyrazolo[3,4-c]pyridin-6(7H)-yl)-2-oxoethyl)azetidine-3-carboxylic acid TFA salt], the IC50 was ≤ 100 nM. Still for that read-out and setting: for `O=C(O)C1CCCN(CC(=O)N2CCc3c(C(F)(F)F)nn(Cc4ccc(F)cc4)c3C2)CC1` (stereo not shown) [Example 13-19, 1-(2-(1-(4-Fluorobenzyl)-3-(trifluoromethyl)-4,5-dihydro-1H-pyrazolo[3,4-c]pyridin-6(7H)-yl)-2-oxoethyl)azepane-4-carboxylic acid TFA salt] the value was ≤ 100 nM; for `O=C(O)C1CCCN(CC(=O)N2CCc3c(C(F)(F)F)nn(Cc4ccc(Cl)cc4F)c3C2)CC1` (stereo not shown) [Example 13-20, 1-(2-(1-(4-Chloro-2-fluorobenzyl)-3-(trifluoromethyl)-4,5-dihydro-1H-pyrazolo[3,4-c]pyridin-6(7H)-yl)-2-oxoethyl)azepane-4-carboxylic acid TFA salt], ≤ 100 nM. On the same count and under the same terms, as for `O=C(O)C1CC2(C1)CN(CC(=O)N1CCc3c(C(F)(F)F)nn(Cc4ccc(Cl)cc4F)c3C1)C2` [Example 13-21, 2-(2-(1-(4-Chloro-2-fluorobenzyl)-3-(trifluoromethyl)-4,5-dihydro-1H-pyrazolo[3,4-c]pyridin-6(7H)-yl)-2-oxoethyl)-2-azaspiro[3.3]heptane-6-carboxylic acid TFA salt], the figure is ≤ 100 nM; as for `O=C(O)CC1CN(CC(=O)N2CCc3c(C(F)(F)F)nn(Cc4ccc(Cl)cc4F)c3C2)C1` [Example 13-22, 2-(1-(2-(1-(4-Chloro-2-fluorobenzyl)-3-(trifluoromethyl)-4,5-dihydro-1H-pyrazolo[3,4-c]pyridin-6(7H)-yl)-2-oxoethyl)azetidin-3-yl)acetic acid TFA salt], ≤ 100 nM.

In the case of `O=C(O)CC1CN(CC(=O)N2CCc3c(C(F)(F)F)nn(Cc4ccc(F)cc4)c3C2)C1` [Example 13-23, 2-(1-(2-(1-(4-Fluorobenzyl)-3-(trifluoromethyl)-4,5-dihydro-1H-pyrazolo[3,4-c]pyridin-6(7H)-yl)-2-oxoethyl)azetidin-3-yl)acetic acid TFA salt], the concentration for half-maximal inhibition (IC50) was ≤ 100 nM. Same read-out and setting: for `O=C(O)CC1CCN(CC(=O)N2CCc3c(C(F)(F)F)nn(Cc4ccc(Cl)cc4F)c3C2)C1` (stereo not shown) [Example 13-24, 2-(1-(2-(1-(4-Chloro-2-fluorobenzyl)-3-(trifluoromethyl)-4,5-dihydro-1H-pyrazolo[3,4-c]pyridin-6(7H)-yl)-2-oxoethyl)pyrrolidin-3-yl)acetic acid TFA salt] the value was ≤ 100 nM; for `O=C(O)CC1CCN(CC(=O)N2CCc3c(C(F)(F)F)nn(Cc4ccc(F)cc4)c3C2)C1` (stereo not shown) [Example 13-25, 2-(1-(2-(1-(4-Fluorobenzyl)-3-(trifluoromethyl)-4,5-dihydro-1H-pyrazolo[3,4-c]pyridin-6(7H)-yl)-2-oxoethyl)pyrrolidin-3-yl)acetic acid TFA salt], ≤ 100 nM. Still for that read-out and setting: as for `O=C(CN[C@H]1C[C@@H](C(=O)O)C1)N1CCc2c(C(F)(F)F)nn(Cc3ccc(F)cc3)c2C1` [Example 13-28, cis-3-(2-(1-(4-Fluorobenzyl)-3-(trifluoromethyl)-4,5-dihydro-1H-pyrazolo[3,4-c]pyridin-6(7H)-yl)-2-oxoethylamino)cyclobutanecarboxylic acid TFA salt], the figure is ≤ 100 nM; as for `O=C(CN[C@H]1C[C@H](C(=O)O)C1)N1CCc2c(C(F)(F)F)nn(Cc3ccc(F)cc3)c2C1` [Example 13-29, trans-3-(2-(1-(4-Fluorobenzyl)-3-(trifluoromethyl)-4,5-dihydro-1H-pyrazolo[3,4-c]pyridin-6(7H)-yl)-2-oxoethylamino)cyclobutanecarboxylic acid TFA salt], ≤ 100 nM; as for `O=C(CN[C@H]1CC[C@@H](C(=O)O)CC1)N1CCc2c(C(F)(F)F)nn(Cc3ccc(F)cc3)c2C1` [Example 13-30, cis-4-(2-(1-(4-Fluorobenzyl)-3-(trifluoromethyl)-4,5-dihydro-1H-pyrazolo[3,4-c]pyridin-6(7H)-yl)-2-oxoethylamino)cyclohexanecarboxylic acid TFA salt], ≤ 100 nM.

Still in this experiment, the particulars now being: IC50, FRET assay, FS-3 2 μM, ATX 1.0 μg/mL, 30 minutes preincubation, 2 hours reaction at room temperature.
Turning to `O=C(O)C1CC2CCCC(C1)N2CC(=O)N1CCc2c(C(F)(F)F)nn(Cc3ccc(F)cc3)c2C1` (stereo not shown) [Example 13-6, 9-(2-(1-(4-Fluorobenzyl)-3-(trifluoromethyl)-4,5-dihydro-1H-pyrazolo[3,4-c]pyridin-6(7H)-yl)-2-oxoethyl)-9-azabicyclo[3.3.3.1]nonane-3-carboxylic acid], the IC50 is ≤ 100 nM.

For `O=C(O)C1CC2COCC(C1)N2CC(=O)N1CCc2c(C(F)(F)F)nn(Cc3ccc(F)cc3)c2C1` (stereo not shown) [Example 13-26, 9-(2-(1-(4-Fluorobenzyl)-3-(trifluoromethyl)-4,5-dihydro-1H-pyrazolo[3,4-c]pyridin-6(7H)-yl)-2-oxoethyl)-3-oxa-9-azabicyclo[3.3.1]nonane-7-carboxylic acid TFA salt], the IC50 was ≤ 100 nM.

`O=C(O)C1CC2COCC(C1)N2CC(=O)N1CCc2c(C(F)(F)F)nn(Cc3ccc(Cl)cc3F)c2C1` (stereo not shown) [Example 13-27, 9-(2-(1-(4-Chloro-2-fluorobenzyl)-3-(trifluoromethyl)-4,5-dihydro-1H-pyrazolo[3,4-c]pyridin-6(7H)-yl)-2-oxoethyl)-3-oxa-9-azabicyclo[3.3.1]nonane-7-carboxylic acid TFA salt]: the IC50 is ≤ 100 nM.
